Test results from the NIST ThermoML archive (doi:10.1016/j.jct.2018.01.023).
± gives the expanded uncertainty stated by the source.

Settings: Crystal; for mass density: 101.33 kPa, X-ray diffraction; for Normal melting temperature: DTA

| mass density (293 K) | mass density (473 K) | mass density (573 K) | mass density (673 K) | mass density (773 K) | mass density (873 K) | mass density (973 K) | Structure (SMILES) | Normal melting temperature |
| --- | --- | --- | --- | --- | --- | --- | --- | --- |
| – | – | – | – | – | – | – | [F-].[F-].[F-].[K+].[Ni+2] [nickel potassium fluoride (KNiF3)] | 1120 ± 20 °C |
| 2530 ± 12 kg/m3 | – | – | – | – | – | – | [F-].[K+] [potassium fluoride] | 856 ± 10 °C |
| 2634 ± 2 kg/m3 | 2576 ± 12 kg/m3 | 2554 ± 11 kg/m3 | 2522 ± 12 kg/m3 | 2493 ± 13 kg/m3 | 2455 ± 12 kg/m3 | 2432 ± 9 kg/m3 | [F-].[Li+] [lithium fluoride] | 845 ± 10 °C |

| Structure (SMILES) | mass density (293 K) | mass density (473 K) | mass density (573 K) | mass density (673 K) | mass density (773 K) | mass density (873 K) | mass density (973 K) | Normal melting temperature |
| --- | --- | --- | --- | --- | --- | --- | --- | --- |
| [F][Ni][F] [nickel difluoride] | 4808 ± 24 kg/m3 | – | – | – | – | – | – | 1356 ± 10 °C |
